PubChem BioAssay (NCI)
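Following 48 hours of exposure in 96-well plates, responses at five concentrations were used to interpolate endpoints linearly. GI50: concentration for 50% inhibition of growth. The concentration for full growth arrest is given as TGI.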

Key:
Experiment in all cases: DTP human tumour cell line panel, 48 h
[1] = system: CAKI-1 renal
[2] = system: SK-MEL-2 melanoma
[3] = system: ACHN renal
[4] = system: SK-OV-3 ovarian
[5] = system: OVCAR-4 ovarian
[6] = system: SF-268 CNS
[7] = system: SK-MEL-5 melanoma
[8] = system: A549 NSCLC
[9] = system: HS 578T breast
[10] = system: IGROV1 ovarian
[11] = system: U251 CNS
[12] = system: KM12 colon
[13] = system: HOP-62 NSCLC
[14] = system: SF-295 CNS
[15] = system: MOLT-4 leukemia
[16] = system: SNB-75 CNS
[17] = system: NCI-H522 lung
[18] = system: HCC-2998 colon
[19] = system: MDA-MB-435
[20] = system: LOX IMVI melanoma
[21] = system: SK-MEL-28 melanoma
[22] = system: UACC-62 melanoma
[23] = system: DU-145 prostate
[24] = system: UACC-257 melanoma
[25] = system: MDA-MB-231 breast
[26] = system: OVCAR-3 ovarian
[27] = system: A498 renal
[28] = system: UO-31 renal
[29] = system: BT-549 breast
[30] = system: PC-3 prostate
[31] = system: HT29 colon
[32] = system: HL-60(TB) leukemia
[33] = system: NCI-H460 lung
[34] = system: MCF7 breast
[35] = system: MALME-3M melanoma
[36] = system: T-47D breast
[37] = system: SN12C renal
[38] = system: SF-539 CNS
[39] = system: HCT-116 colon
[40] = system: OVCAR-5 ovarian
[41] = system: NCI-H23 lung
[42] = system: SNB-19 CNS
[43] = system: TK-10 renal
[44] = system: SW-620 colon
[45] = system: RPMI-8226 leukemia
[46] = system: M14 melanoma
[47] = system: NCI/ADR-RES ovarian
[48] = system: SR leukemia
[49] = system: CCRF-CEM leukemia
[50] = system: OVCAR-8 ovarian
[51] = system: 786-0 renal
[52] = system: EKVX NSCLC
[53] = system: COLO 205 colon
[54] = system: RXF 393 renal
[55] = system: HCT-15 colon
[56] = system: K-562 leukemia
[57] = system: HOP-92 NSCLC
[58] = system: NCI-H226 lung

## ClCC#CCSc1ncnc2c1ncn2CC#CCCl
[1]
  GI50: 1.15 µM
  TGI: 3.74 µM
[2]
  GI50: 1.75 µM
  TGI: 4.79 µM
[3]
  GI50: 1.98 µM
  TGI: 5.5 µM
[4]
  GI50: 1.86 µM
  TGI: 3.95 µM
[5]
  GI50: 2.12 µM
  TGI: 8.29 µM
[6]
  GI50: 1.33 µM
  TGI: 3.09 µM
[7]
  GI50: 1.29 µM
  TGI: 2.66 µM
[8]
  GI50: 1.76 µM
  TGI: 4.35 µM
[9]
  GI50: 2.41 µM
  TGI: 9.8 µM
[10]
  GI50: 1.03 µM
  TGI: 3.34 µM
[11]
  GI50: 1.32 µM
  TGI: 3.04 µM
[12]
  GI50: 1.39 µM
  TGI: 2.8 µM
[13]
  GI50: 1.28 µM
  TGI: 2.67 µM
[14]
  GI50: 2.05 µM
  TGI: 4.59 µM
[15]
  GI50: 2.68 µM
  TGI: 14.1 µM
[16]
  GI50: 1.42 µM
  TGI: 3.06 µM
[17]
  GI50: 1.14 µM
  TGI: 2.73 µM
[18]
  GI50: 1.67 µM
  TGI: 3.11 µM
[19]
  GI50: 2.27 µM
  TGI: 9.04 µM
[20]
  GI50: 0.503 µM
  TGI: 2 µM
[21]
  GI50: 1.61 µM
  TGI: 3.14 µM
[22]
  GI50: 1.17 µM
  TGI: 2.66 µM
[23]
  GI50: 1.79 µM
  TGI: 4.49 µM
[24]
  GI50: 1.36 µM
  TGI: 3.49 µM
[25]
  GI50: 1.5 µM
  TGI: 3.55 µM
[26]
  GI50: 1.51 µM
  TGI: 2.95 µM
[27]
  GI50: 1.75 µM
  TGI: 4.75 µM
[28]
  GI50: 1.33 µM
  TGI: 3.38 µM
[29]
  GI50: 1.61 µM
  TGI: 3.02 µM
[30]
  GI50: 1.41 µM
  TGI: 3.24 µM
[31]
  GI50: 1.65 µM
  TGI: 3.85 µM
[32]
  GI50: 1.99 µM
  TGI: 5.73 µM
[33]
  GI50: 2.15 µM
  TGI: 6.77 µM
[34]
  GI50: 1.18 µM
  TGI: 3.62 µM
[35]
  GI50: 1.88 µM
  TGI: 6.42 µM
[36]
  GI50: 1.33 µM
  TGI: 2.68 µM
[37]
  GI50: 1.55 µM
  TGI: 3.65 µM
[38]
  GI50: 2.1 µM
  TGI: 4.21 µM
[39]
  GI50: 1.42 µM
  TGI: 2.93 µM
[40]
  GI50: 1.73 µM
  TGI: 3.34 µM
[41]
  GI50: 1.49 µM
  TGI: 3.46 µM
[42]
  GI50: 1.64 µM
  TGI: 3.61 µM
[43]
  GI50: 2.94 µM
  TGI: 13.9 µM
[44]
  GI50: 2.17 µM
  TGI: 4.79 µM
[45]
  GI50: 2.03 µM
  TGI: 6.38 µM
[46]
  GI50: 1.47 µM
  TGI: 3.13 µM
[47]
  GI50: 1.77 µM
  TGI: 4.92 µM
[48]
  GI50: 0.432 µM
  TGI: 13.8 µM
[49]
  GI50: 1.8 µM
  TGI: 15.2 µM
[50]
  GI50: 1.78 µM
  TGI: 5.24 µM
[51]
  GI50: 1.66 µM
  TGI: 3.41 µM
[52]
  GI50: 1.9 µM
  TGI: 4.2 µM
[53]
  GI50: 1.56 µM
  TGI: 3.03 µM
[54]
  GI50: 1.01 µM
  TGI: 2.29 µM
[55]
  GI50: 1.68 µM
  TGI: 5.97 µM
[56]
  GI50: 3.15 µM
  TGI: 40.4 µM

## CN(C)CCNc1nc2ccccc2c2c(=O)c3ccccc3sc12
[1]
  GI50: 3.11 µM
  TGI: 14.5 µM
[2]
  GI50: 1.78 µM
  TGI: 3.41 µM
[3]
  GI50: 1.61 µM
  TGI: 4.3 µM
[4]
  GI50: 4.68 µM
  TGI: 19 µM
[5]
  GI50: 2.85 µM
  TGI: 11.1 µM
[6]
  GI50: 2.1 µM
  TGI: 8.82 µM
[7]
  GI50: 1.58 µM
  TGI: 3 µM
[8]
  GI50: 1.81 µM
  TGI: 3.96 µM
[9]
  GI50: 2.89 µM
  TGI: 11.7 µM
[57]
  GI50: 1.68 µM
  TGI: 6.73 µM
[10]
  GI50: 1.81 µM
  TGI: 4.53 µM
[11]
  GI50: 2.25 µM
  TGI: 6.01 µM
[12]
  GI50: 1.71 µM
  TGI: 3.72 µM
[13]
  GI50: 1.94 µM
  TGI: 4.29 µM
[14]
  GI50: 1.76 µM
  TGI: 4.03 µM
[15]
  GI50: 2.22 µM
  TGI: 6.1 µM
[16]
  GI50: 1.74 µM
  TGI: 6.94 µM
[17]
  GI50: 1.7 µM
  TGI: 3.41 µM
[18]
  GI50: 1.74 µM
  TGI: 3.46 µM
[19]
  GI50: 1.83 µM
  TGI: 3.42 µM
[20]
  GI50: 1.37 µM
  TGI: 2.8 µM
[21]
  GI50: 2.08 µM
  TGI: 3.98 µM
[22]
  GI50: 1.73 µM
  TGI: 3.68 µM
[23]
  GI50: 2.31 µM
  TGI: 6.83 µM
[24]
  GI50: 1.76 µM
  TGI: 3.53 µM
[25]
  GI50: 1.34 µM
  TGI: 3.64 µM
[26]
  GI50: 2.06 µM
  TGI: 5.46 µM
[28]
  GI50: 1.08 µM
  TGI: 3.37 µM
[29]
  GI50: 1.88 µM
  TGI: 3.67 µM
[30]
  GI50: 1.84 µM
  TGI: 4.13 µM
[31]
  GI50: 1.8 µM
  TGI: 4.81 µM
[32]
  GI50: 1.82 µM
  TGI: 4.21 µM
[33]
  GI50: 1.62 µM
  TGI: 3.7 µM
[34]
  GI50: 1.37 µM
  TGI: 3.05 µM
[35]
  GI50: 1.86 µM
  TGI: 4.05 µM
[36]
  GI50: 4.91 µM
  TGI: 22.9 µM
[37]
  GI50: 2.13 µM
  TGI: 8.85 µM
[38]
  GI50: 1.78 µM
  TGI: 3.58 µM
[39]
  GI50: 1.41 µM
  TGI: 2.79 µM
[40]
  GI50: 2.25 µM
  TGI: 5.14 µM
[41]
  GI50: 1.68 µM
  TGI: 4.86 µM
[42]
  GI50: 2.83 µM
  TGI: 11.3 µM
[43]
  GI50: 2.52 µM
  TGI: 6.15 µM
[44]
  GI50: 1.39 µM
  TGI: 3.12 µM
[45]
  GI50: 2.42 µM
  TGI: 6.35 µM
[46]
  GI50: 1.86 µM
  TGI: 3.62 µM
[47]
  GI50: 1.96 µM
  TGI: 6.43 µM
[48]
  GI50: 1.66 µM
  TGI: 4.69 µM
[49]
  GI50: 1.92 µM
  TGI: 4.31 µM
[58]
  GI50: 1.77 µM
  TGI: 5.82 µM
[50]
  GI50: 2.36 µM
  TGI: 6.92 µM
[51]
  GI50: 1.49 µM
  TGI: 2.98 µM
[52]
  GI50: 1.66 µM
  TGI: 4.98 µM
[53]
  GI50: 1.44 µM
  TGI: 3.08 µM
[54]
  GI50: 1.51 µM
  TGI: 4.11 µM
[55]
  GI50: 1.97 µM
  TGI: 4.85 µM
[56]
  GI50: 1.52 µM
  TGI: 3.77 µM
